Here are results for one compound from US20050245399A1, “Pyrazole derivatives as herbicidal compositions containing them” (ISHIHARA SANGYO KAISHA, LTD., priority 2004, published 2005).

Molecules are shown by their SMILES.

The subject of one assay is soybean (Glycine max Merr.), GLXMA. The assay is described as follows: Test Example 2 post-emergence (foliage treatment) herbicidal activity, GLXMA. In kind it is in vivo. To be noted: 63 g a.i./ha. The method, boiled down: (§1)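 A small sprayer delivered the diluted WP or EC formulation (500 L/ha water, 0.1% v/v spreader) over emerged seedlings in upland soil pots. Damage relative to untreated plants was graded visually from 0 to 100% three weeks or so later (days 20-23).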
`COc1c(Cl)cc(F)c(-c2nn(C)c(OC(F)F)c2Cl)c1NC(=O)Oc1ccccc1` [Compound 1-67]: the “growth controlling degree, GLXMA” value was 70%.

The next assay concerns barnyardgrass (Echinochiloa oryzicola: ECHOR). The assay is described as follows: Test Example 3 water application herbicidal activity (paddy), ECHOR. It counts as in vivo. Particulars: 63 g a.i./ha, water application under submerged condition at 0.5 leaf stage, visually observed 14th day after application; 0 = untreated control, 100 = complete kill. The source says: (§2) Paddy field soil was put into a 1/1,000,000 ha pot and seeds of barnyardgrass (Echinochiloa oryzicola: ECHOR) and japanese bulrush (Scirpus juncoides: SCPJO) were sown and slightly covered with soil. Then the pot was left to stand still in a greenhouse in a state where the depth of flooding water was from 0.5 to 1 cm, and one day later, tubers of japanese ribbon wapato (Sagittaria pygmaea: SA GPY) were planted. Thereafter, the depth of flooding water was maintained at a level of from 3 to 4 cm, and when barnyardgrass and japanese bulrush reached a 0.5 leaf stage, an aqueous diluted solution of a wettable powder or emulsifiable concentrate having the compound of the present invention formulated in accordance with a usual formulation method, was uniformly applied under submerged condition by a pipette so that the dose of the active ingredient would be at a predetermined level. On the other hand, paddy filed soil was put into a 1/1,000,000 ha pot and puddled and leveled, and the depth of flooding water was from 3 to 4 cm. One day later, rice (Oryza sativa L.: ORYSA) of 2 leaf stage was transplanted in a depth of 3 cm. On the 4th day after the transplantation, the compound of the present invention was applied in the same manner as described above. On the 14th day after the application of the herbicide, the growth of barnyardgrass, japanese burlush and japanese ribbon wapato was visually observed and on the 21st day after the application of the herbicide, the growth of rice was visually observed, and the herbicidal effects were evaluated by growth controlling degrees (%) ranging from 0 (equivalent to the untreated control) to 100 (complete kill), whereby the results shown in Table 6, were obtained. Compound Nos. in Table 6 correspond to Compound Nos. in Table 1 and 2 given hereinbefore.
For the compound `COc1c(Cl)cc(F)c(-c2nn(C)c(OC(F)F)c2Cl)c1NC(=O)Oc1ccccc1` [Compound 1-67], the “growth controlling degrees (%) ECHOR” value is reported as 100%.

For the next assay, the system named is barnyardgrass (Echinochloa crus-galli L.): ECHCG. The assay is described as follows: Test Example 1 pre-emergence herbicidal activity, ECHCG. It counts as in vivo. To be noted: Rate 63 g a.i./ha, visually observed 20th to 23rd day after application. An outline of the steps:
(§3)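 pots, upland field soil; sow; +1 d spray compound (WP or EC, a.i. at set dose, 500 L/ha water), pre-emergence; visual % growth control d20–23 (0 untreated, 100 complete kill).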
`COc1c(Cl)cc(F)c(-c2nn(C)c(OC(F)F)c2Cl)c1NC(=O)Oc1ccccc1` [Compound 1-67]: the “Pre-emergence Herbicidal Activity ECHCG (growth controlling degree)” value is reported as 50%.

The next assay deals with soybean (Glycine max Merr.): GLXMA. The assay is described as follows: Test Example 1 pre-emergence herbicidal activity, GLXMA. It counts as in vivo. To be noted: Rate 63 g a.i./ha, visually observed 20th to 23rd day after application. The method, boiled down: as §3
Regarding `COc1c(Cl)cc(F)c(-c2nn(C)c(OC(F)F)c2Cl)c1NC(=O)Oc1ccccc1` [Compound 1-67], the “Pre-emergence Herbicidal Activity GLXMA (growth controlling degree)” value came to 0%.

The subject of a further assay is corn (Zea mays L.), ZEAMX. The assay is described as follows: Test Example 2 post-emergence (foliage treatment) herbicidal activity, ZEAMX. To be noted: 63 g a.i./ha. In kind it is in vivo. The method, boiled down: as §1
Turning to `COc1c(Cl)cc(F)c(-c2nn(C)c(OC(F)F)c2Cl)c1NC(=O)Oc1ccccc1` [Compound 1-67], the “growth controlling degree, ZEAMX” value is recorded as 30%.

A further assay has as its system crabgrass (Digitaria sanguinalis L.), DIGSA. The assay is described as follows: Test Example 2 post-emergence (foliage treatment) herbicidal activity, DIGSA. In kind it is in vivo. Particulars: 63 g a.i./ha. The method, boiled down: (§4)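 Herbicide was applied to foliage of seedlings raised in upland field soil: redroot pigweed at 0.1-1.5 leaves, barnyardgrass at 1.1-2.1, crabgrass at 1.0-2.0, rice at 1.0-2. A predetermined active ingredient amount was carried in 500 L/ha water with 0.1% (v/v) spreader; control (%) was assessed by eye after 20-23 days.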
In the case of `COc1c(Cl)cc(F)c(-c2nn(C)c(OC(F)F)c2Cl)c1NC(=O)Oc1ccccc1` [Compound 1-67], the “growth controlling degree, DIGSP” value worked out at 70%.

A further assay concerns wheat (Triticum aestivum L.), TRZAX. The assay is described as follows: Test Example 2 post-emergence (foliage treatment) herbicidal activity, TRZAX. It counts as in vivo. To be noted: 63 g a.i./ha. An outline of the steps: as §1
On to `COc1c(Cl)cc(F)c(-c2nn(C)c(OC(F)F)c2Cl)c1NC(=O)Oc1ccccc1` [Compound 1-67], for which the “growth controlling degree, TRZAX” value is on record as 30%.

For a further assay, the system named is prickly sida (Sida spinosa L.), SIDSP. The assay is described as follows: Test Example 2 post-emergence (foliage treatment) herbicidal activity, SIDSP. In kind it is in vivo. Particulars: 63 g a.i./ha. An outline of the steps: as §1
On to `COc1c(Cl)cc(F)c(-c2nn(C)c(OC(F)F)c2Cl)c1NC(=O)Oc1ccccc1` [Compound 1-67], for which the “growth controlling degree, SIDSP” value is reported as 100%.

The subject of another assay is velvetleaf (Abutilon theophrasti): ABUTH. The assay is described as follows: Test Example 1 pre-emergence herbicidal activity, ABUTH. In kind it is in vivo. Particulars: Rate 63 g a.i./ha, visually observed 20th to 23rd day after application. The method, boiled down:
as §3
On to `COc1c(Cl)cc(F)c(-c2nn(C)c(OC(F)F)c2Cl)c1NC(=O)Oc1ccccc1` [Compound 1-67], for which the “Pre-emergence Herbicidal Activity ABUTH (growth controlling degree)” value was found to be 70%.

For the next assay, the system named is corn (Zea mays L.): ZEAMX. The assay is described as follows: Test Example 1 pre-emergence herbicidal activity, ZEAMX. In kind it is in vivo. Particulars: Rate 63 g a.i./ha, visually observed 20th to 23rd day after application. The method, boiled down: as §3
With `COc1c(Cl)cc(F)c(-c2nn(C)c(OC(F)F)c2Cl)c1NC(=O)Oc1ccccc1` [Compound 1-67], the “Pre-emergence Herbicidal Activity ZEAMX (growth controlling degree)” value is recorded as 0%.

In a further assay the test system is green foxtail (Setaria viridis L.): SETVI. The assay is described as follows: Test Example 1 pre-emergence herbicidal activity, SETVI. In kind it is in vivo. Particulars: Rate 63 g a.i./ha, visually observed 20th to 23rd day after application. The method, boiled down: as §3
`COc1c(Cl)cc(F)c(-c2nn(C)c(OC(F)F)c2Cl)c1NC(=O)Oc1ccccc1` [Compound 1-67]: the “Pre-emergence Herbicidal Activity SETVI (growth controlling degree)” value was determined as 100%.

The next assay has as its system barnyardgrass (Echinochloa crus-galli L.), ECHCG. The assay is described as follows: Test Example 2 post-emergence (foliage treatment) herbicidal activity, ECHCG. It counts as in vivo. To be noted: 63 g a.i./ha. An outline of the steps:
as §4
For `COc1c(Cl)cc(F)c(-c2nn(C)c(OC(F)F)c2Cl)c1NC(=O)Oc1ccccc1` [Compound 1-67], the “growth controlling degree, ECHCO” value came to 70%.

Another assay relates to rice (Oryza sativa L.): ORYSA. The assay is described as follows: Test Example 1 pre-emergence herbicidal activity, ORYSA. In kind it is in vivo. Particulars: Rate 63 g a.i./ha, visually observed 20th to 23rd day after application. The method, boiled down:
as §3
For the compound `COc1c(Cl)cc(F)c(-c2nn(C)c(OC(F)F)c2Cl)c1NC(=O)Oc1ccccc1` [Compound 1-67], the “Pre-emergence Herbicidal Activity ORYSA (growth controlling degree)” value is listed as 40%.

The test system of a further assay is japanese bulrush (Scirpus juncoides: SCPJO). The assay is described as follows: Test Example 3 water application herbicidal activity (paddy), SCPJO. In kind it is in vivo. Particulars: 63 g a.i./ha, water application under submerged condition at 0.5 leaf stage, visually observed 14th day after application; 0 = untreated control, 100 = complete kill.
From the text: as §2
Regarding `COc1c(Cl)cc(F)c(-c2nn(C)c(OC(F)F)c2Cl)c1NC(=O)Oc1ccccc1` [Compound 1-67], the “growth controlling degrees (%) SCPJO” value is 100%.

Another assay has as its system japanese ribbon wapato (Sagittaria pygmaea: SA GPY). The assay is described as follows: Test Example 3 water application herbicidal activity (paddy), SAGPY. It counts as in vivo. To be noted: 63 g a.i./ha, water application under submerged condition, tubers planted, visually observed 14th day after application; 0 = untreated control, 100 = complete kill.
From the text: as §2
`COc1c(Cl)cc(F)c(-c2nn(C)c(OC(F)F)c2Cl)c1NC(=O)Oc1ccccc1` [Compound 1-67]: the “growth controlling degrees (%) SAGPY” value is listed as 100%.

The subject of the next assay is wheat (Triticum aestivum L.): TRZAX. The assay is described as follows: Test Example 1 pre-emergence herbicidal activity, TRZAX. It counts as in vivo. To be noted: Rate 63 g a.i./ha, visually observed 20th to 23rd day after application. The method, boiled down:
as §3
With `COc1c(Cl)cc(F)c(-c2nn(C)c(OC(F)F)c2Cl)c1NC(=O)Oc1ccccc1` [Compound 1-67], the “Pre-emergence Herbicidal Activity TRZAX (growth controlling degree)” value stood at 10%.

For the next assay, the system named is velvetleaf (Abutilon theophrasti), ABUTH. The assay is described as follows: Test Example 2 post-emergence (foliage treatment) herbicidal activity, ABUTH. In kind it is in vivo. Particulars: 63 g a.i./ha. The method, boiled down: as §1
As for `COc1c(Cl)cc(F)c(-c2nn(C)c(OC(F)F)c2Cl)c1NC(=O)Oc1ccccc1` [Compound 1-67], the “growth controlling degree, ABUTH” value came to 100%.

In a further assay the test system is prickly sida (Sida spinosa L.): SEDSP. The assay is described as follows: Test Example 1 pre-emergence herbicidal activity, SIDSP. Particulars: Rate 63 g a.i./ha, visually observed 20th to 23rd day after application. In kind it is in vivo. The method, boiled down: as §3
`COc1c(Cl)cc(F)c(-c2nn(C)c(OC(F)F)c2Cl)c1NC(=O)Oc1ccccc1` [Compound 1-67]: the “Pre-emergence Herbicidal Activity SIDSP (growth controlling degree)” value amounted to 80%.

The test system of the next assay is rice (Oryza sativa L.), ORYSA. The assay is described as follows: Test Example 2 post-emergence (foliage treatment) herbicidal activity, ORYSA. In kind it is in vivo. Particulars: 63 g a.i./ha. An outline of the steps: as §4
In the case of `COc1c(Cl)cc(F)c(-c2nn(C)c(OC(F)F)c2Cl)c1NC(=O)Oc1ccccc1` [Compound 1-67], the “growth controlling degree, ORYSA” value is reported as 60%.

A further assay has as its system redroot pigweed (Amaranthus retroflexus L.), AMARE. The assay is described as follows: Test Example 2 post-emergence (foliage treatment) herbicidal activity, AMARE. In kind it is in vivo. Particulars: 63 g a.i./ha. An outline of the steps:
as §4
Take `COc1c(Cl)cc(F)c(-c2nn(C)c(OC(F)F)c2Cl)c1NC(=O)Oc1ccccc1` [Compound 1-67]: the “growth controlling degree, AMARE” value is 100%.

A further assay relates to crabgrass (Digitaria sanguinalis L.): DIGSA. The assay is described as follows: Test Example 1 pre-emergence herbicidal activity, DIGSA. In kind it is in vivo. To be noted: Rate 63 g a.i./ha, visually observed 20th to 23rd day after application. An outline of the steps:
as §3
In the case of `COc1c(Cl)cc(F)c(-c2nn(C)c(OC(F)F)c2Cl)c1NC(=O)Oc1ccccc1` [Compound 1-67], the “Pre-emergence Herbicidal Activity DIGSP (growth controlling degree)” value is given as 100%.

A further assay concerns redroot pigweed (Amaranthus retroflexus L.): AMARE. The assay is described as follows: Test Example 1 pre-emergence herbicidal activity, AMARE. Particulars: Rate 63 g a.i./ha, visually observed 20th to 23rd day after application. In kind it is in vivo. An outline of the steps: as §3
For `COc1c(Cl)cc(F)c(-c2nn(C)c(OC(F)F)c2Cl)c1NC(=O)Oc1ccccc1` [Compound 1-67], the “Pre-emergence Herbicidal Activity AMARE (growth controlling degree)” value was 100%.
